Measurements from article PMC5218480 (PLoS ONE, 2017).

Test system: MV-4-11 cells
Assay: Gene expression microarray analysis (Affymetrix PrimeView) and GSEA
Assay type: cell-based, human
Parameters: RFU PODN (11730768_x_at) / Fold change /veh PODN (11730768_x_at) / RFU LINC00158 (11744669_a_at) / Fold change /veh LINC00158 (11744669_a_at) / RFU DUSP10 (11751237_a_at) / Fold change /veh DUSP10 (11751237_a_at) / RFU ID3 (11757404_x_at) / Fold change /veh ID3 (11757404_x_at) / RFU PLEKHG5 (11737974_s_at) / Fold change /veh PLEKHG5 (11737974_s_at) / RFU LRRC4B (11730491_at) / Fold change /veh LRRC4B (11730491_at) / RFU GIMAP4 (11747438_a_at) / Fold change /veh GIMAP4 (11747438_a_at) / RFU KRT8 (11758183_x_at) / Fold change /veh KRT8 (11758183_x_at) / RFU CNN1 (11734310_a_at) / Fold change /veh CNN1 (11734310_a_at) / RFU VPS37D (11726825_at) / Fold change /veh VPS37D (11726825_at) / RFU C10orf10 (11716522_x_at) / Fold change /veh C10orf10 (11716522_x_at) / RFU KIR2DL2 /// KIR2DL4 /// KIR2DL5A /// KIR2DL5B /// KIR2DS1 /// KIR2DS2 /// KIR2DS3 /// KIR2DS4 /// KIR3DL3 /// KIR3DL3 /// KIR3DS1 (11738374_at) / Fold change /veh KIR2DL2 /// KIR2DL4 /// KIR2DL5A /// KIR2DL5B /// KIR2DS1 /// KIR2DS2 /// KIR2DS3 /// KIR2DS4 /// KIR3DL3 /// KIR3DL3 /// KIR3DS1 (11738374_at) / RFU C1QL1 (11718748_at) / Fold change /veh C1QL1 (11718748_at) / RFU TMPRSS4 (11747572_a_at) / Fold change /veh TMPRSS4 (11747572_a_at) / RFU HAMP (11756126_x_at) / Fold change /veh HAMP (11756126_x_at) / RFU RNFT2 (11725882_a_at) / Fold change /veh RNFT2 (11725882_a_at) / RFU NR4A2 (11747474_a_at) / Fold change /veh NR4A2 (11747474_a_at) / RFU ABCC12 (11746883_a_at) / Fold change /veh ABCC12 (11746883_a_at) / RFU TMEM136 (11760407_x_at) / Fold change /veh TMEM136 (11760407_x_at) / RFU CLDN22 /// WWC2 (11732394_at) / Fold change /veh CLDN22 /// WWC2 (11732394_at) / RFU HLA-DPB1 (11760878_x_at) / Fold change /veh HLA-DPB1 (11760878_x_at) / RFU SPINT1 (11716480_a_at) / Fold change /veh SPINT1 (11716480_a_at) / RFU GAP43 (11754022_s_at) / Fold change /veh GAP43 (11754022_s_at) / RFU A4GNT (11735810_at) / Fold change /veh A4GNT (11735810_at) / RFU PRB3 (11715151_x_at) / Fold change /veh PRB3 (11715151_x_at) / RFU TUBB4B (11761932_at) / Fold change /veh TUBB4B (11761932_at) / RFU CAPN14 (11732068_a_at) / Fold change /veh CAPN14 (11732068_a_at) / RFU TMCC2 (11721928_a_at) / Fold change /veh TMCC2 (11721928_a_at) / RFU IRGQ (11745062_a_at) / Fold change /veh IRGQ (11745062_a_at) / RFU FAM174B (11720279_a_at) / Fold change /veh FAM174B (11720279_a_at) / RFU TMPRSS4 (11748680_a_at) / Fold change /veh TMPRSS4 (11748680_a_at) / RFU FAM212B (11763350_a_at) / Fold change /veh FAM212B (11763350_a_at) / RFU PLEKHG5 (11743358_a_at) / Fold change /veh PLEKHG5 (11743358_a_at) / RFU ZSCAN30 (11745921_a_at) / Fold change /veh ZSCAN30 (11745921_a_at) / RFU CMKLR1 (11741424_a_at) / Fold change /veh CMKLR1 (11741424_a_at) / RFU LOC101060620 /// MAPK8IP1 (11723275_at) / Fold change /veh LOC101060620 /// MAPK8IP1 (11723275_at) / RFU SPTSSB (11747773_x_at) / Fold change /veh SPTSSB (11747773_x_at) / RFU PRSS12 (11739890_at) / Fold change /veh PRSS12 (11739890_at) / RFU BIN1 (11741810_x_at) / Fold change /veh BIN1 (11741810_x_at) / RFU WNT11 (11732464_a_at) / Fold change /veh WNT11 (11732464_a_at) / RFU C10orf10 (11716521_a_at) / Fold change /veh C10orf10 (11716521_a_at) / RFU C5orf56 (11738089_at) / Fold change /veh C5orf56 (11738089_at) / RFU CYB561 (11721691_x_at) / Fold change /veh CYB561 (11721691_x_at) / RFU ANKRD19P (11752326_a_at) / Fold change /veh ANKRD19P (11752326_a_at) / RFU OR2T12 /// OR2T33 /// OR2T8 (11738714_s_at) / Fold change /veh OR2T12 /// OR2T33 /// OR2T8 (11738714_s_at) / RFU VCAN (11748164_a_at) / Fold change /veh VCAN (11748164_a_at) / RFU JSRP1 (11732532_at) / Fold change /veh JSRP1 (11732532_at) / RFU KRTAP10-11 (11738290_x_at) / Fold change /veh KRTAP10-11 (11738290_x_at) / RFU MYO3A (11730013_a_at) / Fold change /veh MYO3A (11730013_a_at) / RFU EBF3 (11725865_a_at) / Fold change /veh EBF3 (11725865_a_at) / RFU CAMK2N1 (11719241_x_at) / Fold change /veh CAMK2N1 (11719241_x_at) / RFU C5orf56 (11738088_a_at) / Fold change /veh C5orf56 (11738088_a_at) / RFU OLFML3 (11715873_a_at) / Fold change /veh OLFML3 (11715873_a_at) / RFU LOC100653217 /// NTM (11731650_a_at) / Fold change /veh LOC100653217 /// NTM (11731650_a_at) / RFU MAPK11 (11762145_a_at) / Fold change /veh MAPK11 (11762145_a_at) / RFU FIZ1 (11724087_x_at) / Fold change /veh FIZ1 (11724087_x_at) / RFU OASL (11726364_x_at) / Fold change /veh OASL (11726364_x_at) / RFU SOX15 (11748057_x_at) / Fold change /veh SOX15 (11748057_x_at) / RFU CD79A (11719716_a_at) / Fold change /veh CD79A (11719716_a_at) / RFU HIST1H1D (11736915_at) / Fold change /veh HIST1H1D (11736915_at) / RFU CASKIN2 (11723855_a_at) / Fold change /veh CASKIN2 (11723855_a_at) / RFU LOC730098 (11760151_x_at) / Fold change /veh LOC730098 (11760151_x_at) / RFU OR4N2 (11742367_at) / Fold change /veh OR4N2 (11742367_at) / RFU PRRT2 (11749266_a_at) / Fold change /veh PRRT2 (11749266_a_at) / RFU SNX32 (11753110_a_at) / Fold change /veh SNX32 (11753110_a_at) / RFU CDHR5 (11726645_a_at) / Fold change /veh CDHR5 (11726645_a_at) / RFU RCAN1 (11760418_a_at) / Fold change /veh RCAN1 (11760418_a_at) / RFU FAM167A (11723789_a_at) / Fold change /veh FAM167A (11723789_a_at) / RFU FAM26E (11764081_at) / Fold change /veh FAM26E (11764081_at) / RFU ISYNA1 (11749810_s_at) / Fold change /veh ISYNA1 (11749810_s_at) / RFU ACY1 (11761880_at) / Fold change /veh ACY1 (11761880_at) / RFU 11764098_at / Fold change /veh 11764098_at / RFU SAMD14 (11745864_x_at) / Fold change /veh SAMD14 (11745864_x_at) / RFU NPB (11741838_a_at) / Fold change /veh NPB (11741838_a_at) / RFU TMPRSS6 (11731388_a_at) / Fold change /veh TMPRSS6 (11731388_a_at) / RFU KRTAP10-2 (11738614_at) / Fold change /veh KRTAP10-2 (11738614_at) / RFU ARHGAP8 /// PRR5-ARHGAP8 (11727945_x_at) / Fold change /veh ARHGAP8 /// PRR5-ARHGAP8 (11727945_x_at) / RFU KRTAP5-7 /// NADSYN1 (11734609_at) / Fold change /veh KRTAP5-7 /// NADSYN1 (11734609_at) / RFU RASL12 (11751679_a_at) / Fold change /veh RASL12 (11751679_a_at) / RFU CDKN2B (11736163_a_at) / Fold change /veh CDKN2B (11736163_a_at) / RFU PRF1 (11729649_at) / Fold change /veh PRF1 (11729649_at) / RFU, ZNF638 /// ZNF638-IT1 / Fold change vs veh, ZNF638 /// ZNF638-IT1 / RFU, PANK3 / Fold change vs veh, PANK3 / RFU, SH3YL1 / Fold change vs veh, SH3YL1 / RFU, ZEB2 / Fold change vs veh, ZEB2 / RFU, NRIP1 / Fold change vs veh, NRIP1 / RFU, PTTG1IP / Fold change vs veh, PTTG1IP / RFU, CAPN2 / Fold change vs veh, CAPN2 / RFU, MED14 / Fold change vs veh, MED14 / RFU, SNORA58 / Fold change vs veh, SNORA58 / RFU, C1orf63 / Fold change vs veh, C1orf63 / RFU, LRRFIP1 / Fold change vs veh, LRRFIP1 / RFU, NDUFAF7 / Fold change vs veh, NDUFAF7 / RFU, SLC12A2 / Fold change vs veh, SLC12A2 / RFU, IBTK / Fold change vs veh, IBTK / RFU, ESF1 / Fold change vs veh, ESF1 / Fold change vs veh, TMEM50B / RFU, TAOK1 / Fold change vs veh, TAOK1 / RFU, ACBD3 / Fold change vs veh, ACBD3 / RFU, TMA16 / Fold change vs veh, TMA16 / RFU, RWDD3 / Fold change vs veh, RWDD3 / RFU, BCAT1 / Fold change vs veh, BCAT1 / RFU, EDEM3 / Fold change vs veh, EDEM3 / RFU, TMEM33 / Fold change vs veh, TMEM33 / RFU, WDR75 / Fold change vs veh, WDR75 / RFU, AHCTF1 / Fold change vs veh, AHCTF1 / RFU, TFRC / Fold change vs veh, TFRC / RFU, ZDHHC17 / Fold change vs veh, ZDHHC17 / RFU, NOM1 / Fold change vs veh, NOM1 / RFU, ARL8B / Fold change vs veh, ARL8B / RFU, ZBTB11 / Fold change vs veh, ZBTB11 / RFU, TAMM41 / Fold change vs veh, TAMM41 / RFU, KIAA1704 /// LOC100996395 / Fold change vs veh, KIAA1704 /// LOC100996395 / RFU, ING1 / Fold change vs veh, ING1 / RFU, TRMT61B / Fold change vs veh, TRMT61B / RFU, FUBP3 / Fold change vs veh, FUBP3 / RFU, TP53 / Fold change vs veh, TP53 / RFU, TNKS2 / Fold change vs veh, TNKS2 / RFU, ZFP14 / Fold change vs veh, ZFP14 / RFU, ACTR2 / Fold change vs veh, ACTR2 / RFU, PPP3R1 / Fold change vs veh, PPP3R1 / RFU, PIK3R1 / Fold change vs veh, PIK3R1 / RFU, HNRNPA1 / Fold change vs veh, HNRNPA1 / RFU, RNF170 / Fold change vs veh, RNF170 / RFU, ZNF28 / Fold change vs veh, ZNF28 / RFU, RNGTT / Fold change vs veh, RNGTT / RFU, OGT / Fold change vs veh, OGT / RFU, BRD1 / Fold change vs veh, BRD1 / RFU, MARS / Fold change vs veh, MARS / RFU, ZNF655 / Fold change vs veh, ZNF655 / RFU, FAHD1 / Fold change vs veh, FAHD1 / RFU, BDP1 / Fold change vs veh, BDP1 / RFU, LRRCC1 / Fold change vs veh, LRRCC1 / RFU, ARID1A / Fold change vs veh, ARID1A / RFU, ZNF146 / Fold change vs veh, ZNF146 / RFU, ZNF330 / Fold change vs veh, ZNF330 / RFU, GPN3 / Fold change vs veh, GPN3 / RFU, C9orf123 / Fold change vs veh, C9orf123 / RFU, N4BP2L2 / Fold change vs veh, N4BP2L2 / RFU, ARFIP1 / Fold change vs veh, ARFIP1 / RFU, FAM179B / Fold change vs veh, FAM179B / RFU, BCL10 / Fold change vs veh, BCL10 / RFU, UHRF1BP1L / Fold change vs veh, UHRF1BP1L / RFU, BET1 / Fold change vs veh, BET1 / RFU, CNOT2 / Fold change vs veh, CNOT2 / RFU, ZNF268 / Fold change vs veh, ZNF268 / Fold change vs veh, ZNF507 / RFU, DGCR2 / Fold change vs veh, DGCR2 / RFU, WDSUB1 / Fold change vs veh, WDSUB1 / Fold change vs veh, HSP90B1 /// MIR3652 / RFU, ADSS / Fold change vs veh, ADSS / RFU, GK / Fold change vs veh, GK / RFU, ZNF148 / Fold change vs veh, ZNF148 / RFU, TAF9 / Fold change vs veh, TAF9 / RFU, SLC1A5 / Fold change vs veh, SLC1A5 / RFU, SLMO2 / Fold change vs veh, SLMO2 / RFU, ABCC4 / Fold change vs veh, ABCC4 / RFU, LOC101060439 /// RAP1B / Fold change vs veh, LOC101060439 /// RAP1B / RFU, RFX7 / Fold change vs veh, RFX7 / RFU, GTPBP10 / Fold change vs veh, GTPBP10 / RFU, CNEP1R1 / Fold change vs veh, CNEP1R1 / RFU, BIVM-ERCC5 /// ERCC5 / Fold change vs veh, BIVM-ERCC5 /// ERCC5 / RFU, ILF3 / Fold change vs veh, ILF3 / RFU 11762660_at / Fold change /veh 11762660_at / RFU VCAN (11757783_s_at) / Fold change /veh VCAN (11757783_s_at) / RFU DDX43 (11728927_at) / Fold change /veh DDX43 (11728927_at) / RFU KRT8 (11758188_x_at) / Fold change /veh KRT8 (11758188_x_at) / RFU NKD1 (11759106_at) / Fold change /veh NKD1 (11759106_at) / RFU SRD5A1 (11742802_a_at) / Fold change /veh SRD5A1 (11742802_a_at) / RFU TPSAB1 /// TPSB2 (11721975_s_at) / Fold change /veh TPSAB1 /// TPSB2 (11721975_s_at) / RFU GSTM3 (11746129_a_at) / Fold change /veh GSTM3 (11746129_a_at) / RFU IL23R (11737362_x_at) / Fold change /veh IL23R (11737362_x_at) / RFU TMEM51 (11727254_a_at) / Fold change /veh TMEM51 (11727254_a_at) / RFU PIWIL2 (11732686_x_at) / Fold change /veh PIWIL2 (11732686_x_at) / RFU ORM1 (11744905_x_at) / Fold change /veh ORM1 (11744905_x_at) / RFU CCDC152 (11743942_at) / Fold change /veh CCDC152 (11743942_at) / RFU ECM1 (11717891_a_at) / Fold change /veh ECM1 (11717891_a_at) / RFU IL23R (11748794_a_at) / Fold change /veh IL23R (11748794_a_at) / RFU TNFAIP8L3 (11732012_x_at) / Fold change /veh TNFAIP8L3 (11732012_x_at) / RFU MBOAT4 (11741988_at) / Fold change /veh MBOAT4 (11741988_at) / RFU 11764193_at / Fold change /veh 11764193_at / RFU TMEM53 (11763286_at) / Fold change /veh TMEM53 (11763286_at) / RFU MAGEB2 (11727129_at) / Fold change /veh MAGEB2 (11727129_at) / RFU TMEM200A (11744735_a_at) / Fold change /veh TMEM200A (11744735_a_at) / RFU CCDC152 (11751479_a_at) / Fold change /veh CCDC152 (11751479_a_at) / RFU FAM211A (11726209_a_at) / Fold change /veh FAM211A (11726209_a_at) / RFU RGS16 (11746705_a_at) / Fold change /veh RGS16 (11746705_a_at) / RFU VCAN (11755009_s_at) / Fold change /veh VCAN (11755009_s_at) / RFU RHOB (11743442_s_at) / Fold change /veh RHOB (11743442_s_at) / RFU RGS16 (11720943_a_at) / Fold change /veh RGS16 (11720943_a_at) / RFU RGS16 (11720944_at) / Fold change /veh RGS16 (11720944_at) / RFU, VPS4B / Fold change vs veh, VPS4B / RFU, CREB1 / Fold change vs veh, CREB1 / RFU, DNAJC13 / Fold change vs veh, DNAJC13 / RFU, GNAQ / Fold change vs veh, GNAQ / RFU, CDK5R1 / Fold change vs veh, CDK5R1 / RFU, ZRANB3 / Fold change vs veh, ZRANB3 / RFU, CUL4A / Fold change vs veh, CUL4A / RFU, CCNY / Fold change vs veh, CCNY / RFU, UFL1 / Fold change vs veh, UFL1 / RFU, COG3 / Fold change vs veh, COG3 / RFU, DIAPH2 / Fold change vs veh, DIAPH2 / RFU, SKA2 / Fold change vs veh, SKA2 / RFU, AFF3 / Fold change vs veh, AFF3 / RFU, LMF1 / Fold change vs veh, LMF1 / RFU, IPO11 / Fold change vs veh, IPO11 / RFU, DFFB / Fold change vs veh, DFFB / RFU, FOXP1 / Fold change vs veh, FOXP1 / RFU, CARD8 / Fold change vs veh, CARD8 / RFU, STRN3 / Fold change vs veh, STRN3 / RFU, ADK / Fold change vs veh, ADK / RFU, RASSF2 / Fold change vs veh, RASSF2 / RFU, WIPF1 / Fold change vs veh, WIPF1 / RFU, LARP1B / Fold change vs veh, LARP1B / RFU, RASA1 / Fold change vs veh, RASA1 / RFU, RB1 / Fold change vs veh, RB1 / RFU, PPFIA1 / Fold change vs veh, PPFIA1 / RFU, MAT2A / Fold change vs veh, MAT2A / RFU, CCT5 / Fold change vs veh, CCT5 / RFU, WDR92 / Fold change vs veh, WDR92 / RFU, CUX1 / Fold change vs veh, CUX1 / RFU, TTC7A / Fold change vs veh, TTC7A / RFU, TMEM135 / Fold change vs veh, TMEM135 / RFU, DEPTOR / Fold change vs veh, DEPTOR / RFU, CPM / Fold change vs veh, CPM / RFU, DNAJB6 / Fold change vs veh, DNAJB6 / RFU, CACNA2D3 / Fold change vs veh, CACNA2D3 / RFU, DTX4 / Fold change vs veh, DTX4 / RFU, TFCP2 / Fold change vs veh, TFCP2 / RFU, GMCL1 /// GMCL1P1 / Fold change vs veh, GMCL1 /// GMCL1P1 / RFU, AEBP2 / Fold change vs veh, AEBP2 / RFU, SNHG1 /// SNORD22 /// SNORD25 /// SNORD26 /// SNORD27 /// SNORD28 /// SNORD29 /// SNORD31 / Fold change vs veh, SNHG1 /// SNORD22 /// SNORD25 /// SNORD26 /// SNORD27 /// SNORD28 /// SNORD29 /// SNORD31 / Fold change (Aza/veh), C12orf56 (ProbeSet 11735607_a_at) / Fold change (ACY-1035/veh), C12orf56 (ProbeSet 11735607_a_at) / Fold change (Aza/veh), FGFR1OP (ProbeSet 11751329_s_at) / Fold change (ACY-1035/veh), FGFR1OP (ProbeSet 11751329_s_at) / Fold change (Aza/veh), VPS36 (ProbeSet 11739960_a_at) / Fold change (ACY-1035/veh), VPS36 (ProbeSet 11739960_a_at) / RFU SYPL1 (11715823_x_at) / Fold change /veh SYPL1 (11715823_x_at) / RFU IGFBP7 (11715501_s_at) / Fold change /veh IGFBP7 (11715501_s_at) / RFU REEP3 (11722064_at) / Fold change /veh REEP3 (11722064_at) / RFU IGLL1 (11728026_x_at) / Fold change /veh IGLL1 (11728026_x_at): dose or concentration left out as unconfirmed
Settings: ProbeSet 11734782_x_at; LIST D

In the case of `Nc1ncn([C@@H]2O[C@H](CO)[C@@H](O)[C@H]2O)c(=O)n1` [azacitidine], the “RFU, WDR92” value is reported as 49.30 RFU.
